From publication PMC6359343 (Molecules, 2019)
“Also recorded” adds a separate entry of the source. Where two headings read alike, the source gives them in different places.

Key:
[1] = system: Neuraminidase from Clostridium perfringens (bacterial neuraminidase); assay type: binding
[2] = biological target: Neuraminidase from Clostridium perfringens (C. welchii) (EC 3.2.1.18); assay type: biochemical; details: for IC50: pH 5.0, 37 °C, read-out: IC50, bacterial neuraminidase
[3] = biological target: Neuraminidase from Clostridium perfringens (bacterial neuraminidase); assay type: biochemical; details: for Ki: read-out: Ki (inhibition constant); for Kik/Kiv: Yang's method
[4] = concentration that caused 50% enzyme activity loss, three repeats
[5] = Lineweaver–Burk and Dixon plots

Molecule	KA (binding constant) ([1]; fluorescence quenching, pH 5.0) [L/mol]	IC50 [2, 4] [µM]	KSV (Stern–Volmer constant) ([1]; fluorescence quenching, pH 5.0) [L/mol]	Ki ([3]; Dixon plots) [µM]	Kinetic Mode [3, 5]	also measured
O=c1cc(-c2ccc(O)cc2)oc2cc(O)cc(O)c12 [Apigenin, apigenin, reference compound]	514200	108 ± 1.8				
CC(C)=CCc1cc(-c2cc(=O)c3c(O)cc(O)c(CC=C(C)C)c3o2)cc(O)c1O [Compound 1, epimedokoreanin B]	966600	0.17 ± 0.02	411040	0.15	Noncompetitive	times more effective than luteolin (mother skeleton) ([2]; ratio of IC50 values): 500 times; Kinetic Mode ([3]; Lineweaver–Burk and Dixon plots, listed as compound 1): noncompetitive inhibition; also recorded: noncompetitive behavior; Kik/Kiv ([3]; [I] 0.12 µM): 16.0415; Kik/Kiv ([3]; [I] 0.24 µM): 6.6846; Kik/Kiv ([3]; [I] 0.48 µM): 7.7610; reversibility of inhibition ([3]; initial velocity versus enzyme concentration plots): reversible inhibitor
CC(C)=CCc1c(O)cc(O)c2c1OC(c1ccc(O)cc1)C(O)C2=O (stereo not shown) [Compound 2, 8-(γ,γ-dimethylallyl)-5,7,4′-trihydroxydihydroflavonol]	792300	0.68 ± 0.03	236360	0.73	Noncompetitive	times more potent in comparison with dihydrokaempferol ([2]; ratio of IC50 values): 700 times
CC(C)=CCc1cc(-c2cc(=O)c3c(O)cc(O)c(CC=C(C)C)c3o2)ccc1O [Compound 3, 5,7,4′-trihydroxy-8,3′-diprenyl flavone]	760400	12.6 ± 0.2	134420	12.2	Noncompetitive	
COc1ccc(-c2oc3c(CC=C(C)C)c(O[C@@H]4O[C@H](CO)[C@@H](O)[C@H](O)[C@H]4O)cc(O)c3c(=O)c2O[C@@H]2O[C@@H](C)[C@H](O)[C@@H](O)[C@H]2O)cc1 [Compound 5, icariin]	584400	57.8 ± 1.1	60400	36.8	mixed type inhibitor; also recorded: mixed-type behavior; also recorded: Mixed type I	Kik/Kiv ([3]; [I] 35.0 µM): 3.6688; Kik/Kiv ([3]; [I] 70.0 µM): 2.3384; Kik/Kiv ([3]; [I] 140.0 µM): 2.0207
COc1ccc(-c2oc3c(CC=C(C)C)c(O)cc(O)c3c(=O)c2O[C@@H]2O[C@@H](C)[C@H](O)[C@@H](O)[C@H]2O[C@@H]2OC[C@@H](O)[C@H](O)[C@H]2O)cc1 [Compound 6, sagittatoside B]	505700	106 ± 3.2	56080	103	Noncompetitive	
COc1ccc(-c2oc3c(c(O)cc4oc(C(C)(C)OC)cc43)c(=O)c2OC2OC(C)C(O)C(O)C2O)cc1 [Compound 7, 5-hydroxy-2-(4-methoxyphenyl)-8-(2-methoxypropan-2-yl)-3-(((2S,3R,4R,5R,6S)-3,4,5-trihydroxy-6-methyltetra-hydro-2H-pyran-2-yl)oxy)-4H-furo[2-3-h]chromen-4-one]	785100	2.9 ± 0.7	216560	2.73	Noncompetitive	times more effective compared with compound 8 ([2]; methoxy group (7) versus hydroxyl group (8)): 5 times
COc1ccc(-c2oc3c(c(O)cc4oc(C(C)(C)O)cc43)c(=O)c2O[C@@H]2O[C@@H](C)[C@H](O)[C@@H](O)[C@H]2O)cc1 [Compound 8, 5-hydroxy-8-(2-hydroxypropan-2-yl)-2-(4-methoxyphenyl)-3-(((2S,3R,4R,5R,6S)-3,4,5-trihydroxy-6-methyl-tetrahydro-2H-pyran-2-yl)oxy)-4H-furo[2,3-h]chromen-4-one]	741600	16.7 ± 0.9	111200	16.4	Noncompetitive	
O=C1c2c(O)cc(O)cc2O[C@H](c2ccc(O)cc2)[C@H]1O [Dihydrokaempferol, dihydrokaempferol, reference compound]	299800	500.4 ± 3.8	24790			fluorescence quenching (FQ) effect [1]: insignificant
O=c1cc(-c2ccc(O)c(O)c2)oc2cc(O)cc(O)c12 [Luteolin, luteolin, reference compound]	557800	85.6 ± 2.1	56140			
O=c1c(O)c(-c2ccc(O)c(O)c2)oc2cc(O)cc(O)c12 [Quercetin, reference compound]		20.2 ± 0.8				
icariside II [Compound 4]						KA (binding constant) ([1]; pH 5): 733500 L/mol; KSV (Stern–Volmer constant) ([1]; pH 5): 95690 L/mol; IC50 [2]: 20 ± 0.5 µM; Kinetic Mode [3]: Noncompetitive (21.1 ± 0.8); Ki [3]: 21.1 µM
